Measurements from PubChem BioAssay AID330 (DTP/NCI, 2004).
Several values for one entry are separate records, joined by “and”; a condition that tells them apart may be missing. Identical values can stand only once. Toxic doses and inconclusive results are not listed. The calls were made as follows: active = survival T/C of 150% or more; inactive = T/C below 125% in these data.

System: P388 leukemia ip, CD2F1 mice, survival T/C
Assay: NCI In Vivo Anticancer Drug Screen. Data for tumor model P388 Leukemia (intraperitoneal) in CD2F1 (CDF1) mice
Settings: endpoint: median survival time, higher = longer survival
Method in brief: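 Mice carrying the transplanted tumor received test compound or vehicle. Survival was recorded in each group, and the value is the treated-group measurement divided by that of the vehicle-treated control group.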

[1] = dose: 50.0 mg/kg/injection, schedule: Q01DX005 (ip), vehicle: saline
[2] = dose: 100.0 mg/kg/injection, schedule: Q01DX005 (ip), vehicle: saline
[3] = dose: 200.0 mg/kg/injection, schedule: Q01DX005 (ip), vehicle: saline
[4] = dose: 50.0 mg/kg/injection, schedule: Q01DX005 (ip), vehicle: Klucel (hydroxypropylcellulose) (HPC)
[5] = dose: 100.0 mg/kg/injection, schedule: Q01DX005 (ip), vehicle: Klucel (hydroxypropylcellulose) (HPC)
[6] = dose: 200.0 mg/kg/injection, schedule: Q01DX005 (ip), vehicle: Klucel (hydroxypropylcellulose) (HPC)
[7] = dose: 50.0 mg/kg/injection, schedule: Q01DX009 (ip), vehicle: Klucel (hydroxypropylcellulose) (HPC)
[8] = dose: 100.0 mg/kg/injection, schedule: Q01DX009 (ip), vehicle: Klucel (hydroxypropylcellulose) (HPC)
[9] = dose: 200.0 mg/kg/injection, schedule: Q01DX009 (ip), vehicle: Klucel (hydroxypropylcellulose) (HPC)
[10] = dose: 12.5 mg/kg/injection, schedule: Q01DX009 (ip), vehicle: Klucel (hydroxypropylcellulose) (HPC)
[11] = dose: 25.0 mg/kg/injection, schedule: Q01DX009 (ip), vehicle: Klucel (hydroxypropylcellulose) (HPC)
[12] = dose: 50.0 mg/kg/injection, schedule: Q01DX009 (ip), vehicle: suspension in saline
[13] = dose: 25.0 mg/kg/injection, schedule: Q01DX009 (ip), vehicle: saline with Tween-80
[14] = dose: 50.0 mg/kg/injection, schedule: Q01DX009 (ip), vehicle: saline with Tween-80
[15] = dose: 100.0 mg/kg/injection, schedule: Q01DX009 (ip), vehicle: saline with Tween-80
[16] = dose: 200.0 mg/kg/injection, schedule: Q01DX009 (ip), vehicle: saline with Tween-80
[17] = dose: 12.5 mg/kg/injection, schedule: Q01DX009 (ip), vehicle: saline with Tween-80
[18] = dose: 50.0 mg/kg/injection, schedule: Q01DX005 (ip), vehicle: saline with Tween-80
[19] = dose: 100.0 mg/kg/injection, schedule: Q01DX005 (ip), vehicle: saline with Tween-80
[20] = dose: 200.0 mg/kg/injection, schedule: Q01DX005 (ip), vehicle: saline with Tween-80

Measured: T/C

COC1CCC(O)C(C(=O)CN(C)C)C1 (stereo not drawn)
inactive: [1] 101 % of control | [2] 99 % of control | [3] 99 % of control

CCOC(=O)N1N=C(c2ccccc2)OC2(N3CCCC3)CCC(C(C)(C)C)CC12 (stereo not drawn)
inactive: [4] 89 % of control | [5] 96 % of control | [6] 96 % of control

COC(=O)C1NC(C(O)C(O)C(O)C(O)CO)SC1(C)C (stereo not drawn)
inactive: dose: 50.0 mg/kg/injection, schedule: Q01DX009 (ip), vehicle: saline 94 % of control | dose: 100.0 mg/kg/injection, schedule: Q01DX009 (ip), vehicle: saline 102 % of control | dose: 200.0 mg/kg/injection, schedule: Q01DX009 (ip), vehicle: saline 100 % of control

Cc1ccc(S(=O)(=O)N/N=C2/C=CC3(CCCCC3)CC2)cc1
inactive: [7] 109 % of control | [8] 102 % of control | [9] 111 % of control

O=C1CSc2ccccc2N1
inactive: dose: 6.25 mg/kg/injection, schedule: Q01DX009 (ip), vehicle: suspension in saline 102 % of control | [10] 105 % of control | dose: 12.5 mg/kg/injection, schedule: Q01DX009 (ip), vehicle: suspension in saline 104 % of control | [11] 97 % of control | dose: 25.0 mg/kg/injection, schedule: Q01DX009 (ip), vehicle: suspension in saline 99 % of control | [7] 88 % of control and 95 % of control | [12] 104 % of control | [9] 100 % of control | dose: 400.0 mg/kg/injection, schedule: Q01DX009 (ip), vehicle: Klucel (hydroxypropylcellulose) (HPC) 99 % of control

CC(C)(CCC(=S)N1CCOCC1)c1ccccc1
inactive: [13] 111 % of control | [14] 96 % of control | [15] 105 % of control | [16] 105 % of control

NC(CCS(=O)(=O)NO)C(=O)O (stereo not drawn)
inactive: dose: 12.5 mg/kg/injection, schedule: Q01DX009 (ip), vehicle: water 89 % of control | dose: 25.0 mg/kg/injection, schedule: Q01DX009 (ip), vehicle: water 99 % of control | dose: 50.0 mg/kg/injection, schedule: Q01DX009 (ip), vehicle: water 90 % of control | dose: 100.0 mg/kg/injection, schedule: Q01DX009 (ip), vehicle: water 102 % of control | dose: 200.0 mg/kg/injection, schedule: Q01DX009 (ip), vehicle: water 99 % of control

CC(=O)OC/C=C(\C)CC(/C=C(C)/C=C/C1=C(C)CCCC1(C)C)S(=O)(=O)c1ccccc1 (stereo not drawn)
inactive: [17] 100 % of control | [13] 106 % of control | [14] 90 % of control and 93 % of control | [16] 92 % of control

C=C/[Se](=C(/C#N)C(=O)c1ccccc1)c1ccccc1 (stereo not drawn)
inactive: dose: 6.25 mg/kg/injection, schedule: Q01DX009 (ip), vehicle: saline 99 % of control | dose: 12.5 mg/kg/injection, schedule: Q01DX009 (ip), vehicle: saline 99 % of control | dose: 25.0 mg/kg/injection, schedule: Q01DX009 (ip), vehicle: saline 89 % of control

Cc1cc(=O)n(-c2ccc(S(=O)(=O)N=C(N)N)cc2)c(C)c1C(=O)O
inactive: [18] 102 % of control | [19] 106 % of control | [20] 103 % of control

C[n+]1cccc2c1-c1ccccc1C2=O
inactive: dose: 25.0 mg/kg/injection, schedule: Q01DX005 (ip), vehicle: Klucel (hydroxypropylcellulose) (HPC) 101 % of control | [4] 115 % of control | [5] 101 % of control | [6] 91 % of control

CNCCc1ccc2cc(OC)c(OC)cc2c1
inactive: [13] 90 % of control | [14] 100 % of control | [15] 100 % of control

Nc1[nH]c(=S)[nH]c(=O)c1N=Cc1ccc(Cl)c(Cl)c1
inactive: dose: 50.0 mg/kg/injection, schedule: Q01DX001 (ip), vehicle: Klucel (hydroxypropylcellulose) (HPC) 100 % of control | dose: 100.0 mg/kg/injection, schedule: Q01DX001 (ip), vehicle: Klucel (hydroxypropylcellulose) (HPC) 100 % of control and 102 % of control and 114 % of control | dose: 200.0 mg/kg/injection, schedule: Q01DX001 (ip), vehicle: Klucel (hydroxypropylcellulose) (HPC) 103 % of control (2×) and 116 % of control | dose: 400.0 mg/kg/injection, schedule: Q01DX001 (ip), vehicle: Klucel (hydroxypropylcellulose) (HPC) 107 % of control and 110 % of control

CN(C)CCCSc1nnc(-c2ccc3c(c2)OCO3)o1
inactive: dose: 50.0 mg/kg/injection, schedule: Q04DX002 (ip), vehicle: water 106 % of control | dose: 100.0 mg/kg/injection, schedule: Q04DX002 (ip), vehicle: water 100 % of control | dose: 200.0 mg/kg/injection, schedule: Q04DX002 (ip), vehicle: water 101 % of control

CCCCCCCCC(=O)Nc1ncc([N+](=O)[O-])s1
inactive: [7] 113 % of control | [8] 115 % of control | [9] 100 % of control

C=C1C(=O)OC2/C=C(\CO)CC/C=C(/C=O)CC(O)C12 (stereo not drawn)
inactive: dose: 1.89 mg/kg/injection, schedule: Q01DX005 (ip), vehicle: saline 101 % of control | dose: 3.75 mg/kg/injection, schedule: Q01DX005 (ip), vehicle: saline 101 % of control | dose: 7.5 mg/kg/injection, schedule: Q01DX005 (ip), vehicle: saline 99 % of control | dose: 15.0 mg/kg/injection, schedule: Q01DX005 (ip), vehicle: saline 96 % of control

CC(=O)c1cc2c(cc1C(C)C)CC[C@H]1[C@](C)(C#N)CCC[C@]21C
inactive: dose: 50.0 mg/kg/injection, schedule: Q01DX009 (ip), vehicle: saline sonified 86 % of control | dose: 100.0 mg/kg/injection, schedule: Q01DX009 (ip), vehicle: saline sonified 90 % of control

COc1ccc(/C(C[P+](c2ccccc2)(c2ccccc2)c2ccccc2)=N/OC(C)(C)OC)cc1
inactive: dose: 6.25 mg/kg/injection, schedule: Q01DX009 (ip), vehicle: Klucel (hydroxypropylcellulose) (HPC) 98 % of control | [10] 100 % of control | [11] 106 % of control | [7] 101 % of control

Cc1cc(NC(=O)c2ccc(C(=O)Nc3ccc(N=Nc4cc(S(=O)(=O)O)c5cccc(S(=O)(=O)O)c5c4)c(C)c3)cc2)ccc1N=Nc1cc(S(=O)(=O)O)c2cccc(S(=O)(=O)O)c2c1
inactive: [18] 94 % of control | [19] 93 % of control | [20] 98 % of control

COC1=CC(=O)OC(/C=C/c2ccccc2)(OC)C1=O (stereo not drawn)
inactive: dose: 60.0 mg/kg/injection, schedule: Q01DX005 (ip), vehicle: saline with Tween-80 102 % of control | dose: 120.0 mg/kg/injection, schedule: Q01DX005 (ip), vehicle: saline with Tween-80 110 % of control | dose: 240.0 mg/kg/injection, schedule: Q01DX005 (ip), vehicle: saline with Tween-80 101 % of control

Cc1ocnc1Cc1ccc(O)c(O)c1
inactive: dose: 100.0 mg/kg/injection, schedule: Q01DX001 (ip), vehicle: saline 101 % of control | dose: 200.0 mg/kg/injection, schedule: Q01DX001 (ip), vehicle: saline 96 % of control | dose: 400.0 mg/kg/injection, schedule: Q01DX001 (ip), vehicle: saline 98 % of control

Cc1ccc2c(c1)N(CCSc1ncn[nH]1)C(C)(C)CC2C (stereo not drawn)
inactive: dose: 100.0 mg/kg/injection, schedule: Q04DX002 (ip), vehicle: Klucel (hydroxypropylcellulose) (HPC) 97 % of control | dose: 200.0 mg/kg/injection, schedule: Q04DX002 (ip), vehicle: Klucel (hydroxypropylcellulose) (HPC) 92 % of control | dose: 400.0 mg/kg/injection, schedule: Q04DX002 (ip), vehicle: Klucel (hydroxypropylcellulose) (HPC) 97 % of control

S=C(Nc1cc(Cl)c(Cl)cc1Cl)SCc1ccccc1
inactive: [12] 93 % of control | dose: 100.0 mg/kg/injection, schedule: Q01DX009 (ip), vehicle: suspension in saline 93 % of control

CCCCCCCCCCCCCCCC[N+](C)(C)CC(=O)O
inactive: [17] 104 % of control | [13] 86 % of control | [14] 105 % of control

O=C(c1ccccc1)[C@@]12COc3ccccc3[C@@H]1ON=C2c1ccccc1
inactive: [4] 89 % of control | [5] 88 % of control | [6] 91 % of control

NC(=Nc1ccccc1)NNC=O
inactive: [1] 102 % of control | [2] 104 % of control | [3] 100 % of control

CCOC(=O)C1=C(C)O/C(=C/c2ccccc2)C1=O
inactive: [7] 112 % of control | [8] 102 % of control | [9] 92 % of control
